System: Actinobacillus actinomycetemcomitans
Test: Standard colony forming units (CFU) assay of LL-37 on A. actinomycetemcomitans
Type: cell-based
Method: In this study we used an isolate of Actinobacillus actinomycetemcomitans from the oral cavitas of patient (A), kindly provided by Dr A. Johansson (Umeå). Bacteria were routinely grown on tryptic soy agar (Difco) supplemented with 0.5% yeast extract (TSBY) at microaerophilic conditions. The effect of LL-37 on A. actinomycetemcomitans was tested in a standard colony forming units (CFU)-assay (Tanaka et al., Oral Microbiol Immunol. 2000;15(4):226-31) by incubating 10^5 bacteria for 90 min with 20 μg/ml of synthetic LL-37 in 10 mM phosphate buffer pH 7.2 with 1% TSBY.

In the case of “LL-37: Human cathelicidin-type antibacterial peptide encoded by the CAMP gene, SEQ ID NO: 3; released from the proform cathelin-LL-37 (LLGDFFRKSKEKIGKEFKRIVQRIKDFLRNLVPRTES; homo sapiens)”, the “reduction in colony counts” value (20 μg/ml LL-37 for 90 min, 10^5 bacteria, isolate from patient (A), 10 mM phosphate buffer pH 7.2 with 1% TSBY) is reported as 3-4 log and the “effect on growth of the bacteria in vitro” value (A. actinomycetemcomitans isolated from patient (A)) is reported as “could stop the growth”.
